{"source": "patent US20210113493A1", "about": "“KETAMINE FOR THE TREATMENT OF M[…] SYMPTOMS” (priority 2016, published 2021)", "key": {"[1]": {"test_system": "symptoms of menstrual related pain and emotion", "assay": "Evaluation of sublingual ketamine lozenges/ODTs in women, Daily Record of Severity of Problems"}, "[2]": {"settings": "Aun, Br. J. Anaesthesia 83: 29-41 (1999); cited from earlier work"}, "[3]": {"test_system": "subclinical menstrually related symptoms", "settings": "50 mg lozenges, ½ to 2 once to three times daily"}}}
{"smiles": "CNC1(c2ccccc2Cl)CCCCC1=O", "note": "(racemic) [ketamine]", "values": [{"measurement": "subjects reporting sufficient improvement with a 25 mg dose", "setting": "[1]; 25 mg dose, 9 women", "value": "Three subjects reported sufficient improvement"}, {"measurement": "interference with functionality", "setting": "[1]; 50 mg dose, 9 women", "value": "One subject reported that a 50 mg dose interfered with their functionality"}, {"measurement": "relief of PMS symptoms at 100 mg dose", "setting": "[1]; 100 mg dose, preferred by three subjects", "value": "substantial relief of PMS symptoms"}, {"measurement": "negative after effects", "setting": "[1]; 9 women", "value": "no reports of negative after effects"}, {"measurement": "subjects reporting emotional symptom improvement during the symptomatic days of their cycles", "setting": "[1]; 9 women, 25-100 mg ketamine racemate sublingual lozenge/ODT", "value": 9, "unit": "subjects"}, {"measurement": "duration of effect", "setting": "[1]; all subjects, beyond the time of administration", "value": "lasting for days, or more, beyond the time of ketamine administration"}, {"measurement": "effect on breast tenderness and cramping", "setting": "[1]; physical symptoms, 9 women", "value": "positively affected in three subjects, but not in six others"}, {"measurement": "improvement of headaches", "setting": "[1]; physical symptoms, 9 women", "value": "Two subjects reported improvement of headaches"}, {"measurement": "duration of anesthetic effects", "setting": "[1]; sublingual, first hour the intense portion", "value": "up to 2 hours"}, {"measurement": "duration of relief of physical symptoms", "setting": "[1]; two subjects, doses of 50 mg and 100 mg, until menses began", "value": 5, "unit": "days"}]}
{"smiles": "CN[C@]1(c2ccccc2Cl)CCCCC1=O", "note": "[S-(+)-ketamine]", "values": [{"measurement": "potency for use in anesthesia relative to R-(−)-ketamine", "setting": "[2]", "value": "twice as potent as R-(−)-ketamine"}]}
{"smiles": "NC1(c2ccccc2Cl)CCCCC1=O", "note": "(stereo not shown) [norketamine]", "values": [{"measurement": "potency for use in anesthesia relative to ketamine", "setting": "[2]", "value": "one third the potency of ketamine"}]}
{"smiles": "N[C@@]1(c2ccccc2Cl)CCC[C@@H](O)C1=O", "values": [{"measurement": "mental clarity", "setting": "[3]", "value": "can experience an increase in mental clarity"}]}
